Results published in US20160047819A1, “METHOD FOR DIAGNOSING VAGINAL INFECTIONS” (priority 2013, published 2016).

System: bacterial vaginosis
Assay: Remission of bacterial vaginosis at V3 by Amsel's criteria and Gram stain Nugent score
Type: in vivo, human
Experimental: Also provided is a diagnostic kit for use characterizing at least one protein useful for identifying the status of a vaginal infection. The kit includes instructions for carrying out a method of diagnosing vaginal infection using mass spectrometry. The diagnostic method of the invention has been tested on vaginal fluids collected from women enrolled in a clinical study of 80 Belgian pre-menopausal, non-pregnant women, aged between 18 and 50 years were analyzed. At the screening visit (V1) diagnosis of health or BV was made using both Amsel's criteria and Gram stain Nugent scoring. Patients with Nugent score >3 and positive for at least 3 of 4 Amsel's criteria were considered positive for BV. According to this clinical evaluation, women were divided into 2 groups: healthy subjects (H), (n=41) and patients diagnosed for BV (n=39). Patients who were diagnosed for BV at the study visit V1 were included in a multicenter, double-blind, randomised, placebo-controlled study reported in U.S. Ser. No. 13/559,013 (EudraCT: 2009-011826-32), that was performed to compare the efficacy of different doses of rifaximin vaginal tablets versus placebo for the treatment of BV. These patients underwent a randomisation visit and were distributed into four treatment groups: • group A received 100 mg rifaximin vaginal tablet once daily for 5 days (n=10), • group B received 25 mg rifaximin vaginal tablet once daily for 5 days (n=10), • group C received 100 mg rifaximin vaginal tablet once daily for the first 2 days and placebo vaginal tablet for the remaining 3 days (n=9), and • group D received placebo vaginal tablet once daily for 5 days (n=10).
After 7 to 10 days from the end of the therapy a follow-up visit (V3) was performed. Remission was evaluated at V3 according to Amsel's criteria (<3) and Gram stain Nugent score ([…]).
(§1) Patients who were diagnosed for BV at the study visit V1 were included in a multicentre, double-blind, randomised, placebo-controlled study (EudraCT: 2009-011826-32), that was performed to compare the efficacy of different doses of rifaximin vaginal tablets versus placebo for the treatment of BV. The patients underwent a randomization visit and were distributed into 4 treatment groups: group A received 100 mg rifaximin vaginal tablet once daily for 5 days (n=10), group B received 25 mg rifaximin vaginal tablet once daily for 5 days (n=10), group C received 100 mg rifaximin vaginal tablet once daily for the first 2 days and placebo vaginal tablet for the remaining 3 days (n=9), group D received placebo vaginal tablet once daily for 5 days (n=10). Study medication was administered intra-vaginally at bedtime. After 7 to 10 days from the end of the therapy a follow-up visit (V3) was performed. Remission was evaluated at V3 according to Amsel's criteria (<3) and Gram stain Nugent score (≦3) (Table 1).
as §1, with “randomisation” for “randomization”

[1] = group A: 100 mg vaginal tablet once daily for 5 days (n=10)
[2] = group B: 25 mg vaginal tablet once daily for 5 days (n=10)
[3] = group C: 100 mg vaginal tablet once daily for 2 days, then placebo 3 days (n=9)

Compound: CO[C@H]1/C=C/O[C@@]2(C)Oc3c(C)c(O)c4c(O)c(c5c(nc6cc(C)ccn65)c4c3C2=O)NC(=O)/C(C)=C\C=C\[C@H](C)[C@H](O)[C@@H](C)[C@@H](O)[C@@H](C)[C@H](OC(C)=O)[C@@H]1C [rifaximin]
- women in remission after treatment [1]: 2 women
- women not in remission after treatment [1]: 8 women
- women in remission after treatment [2]: 5 women
- women not in remission after treatment [2]: 5 women
- women in remission after treatment [3]: 4 women
- women not in remission after treatment [3]: 5 women
- women in remission (R), all treatment groups (of 39 BV-affected women after rifaximin/placebo treatment): 11 women
